The IC50 is the concentration at which inhibition is half-maximal. A lower IC50 goes with higher potency.

This assay in a line: Displacement of [3H]DTG from sigma opioid receptor of homogenized guinea pig whole brain.

Consider `COc1ccc(N=C(N)NC23CC4CC(CC(C4)C2)C3)c(C)c1`, for which the IC50 turned out to be 7 nM. Consider `COc1ccccc1N=C(N)NC12CC3CC(CC(C3)C1)C2`, for which the IC50 is 17 nM.

In turn, `Cc1cc(F)ccc1N=C(N)NC12CC3CC(CC(C3)C1)C2` showed an IC50 of 3.2 nM. Consider `NC(=NC12CC3CC(CC(C3)C1)C2)Nc1cccc(I)c1`, for which the IC50 turned out to be 8 nM.

As to `COc1cccc(NC(N)=NC23CC4CC(CC(C4)C2)C3)c1`, the IC50 turned out to be 7 nM. The IC50 values of the last two compounds are within 1.5-fold of each other. The result for `NC(=Nc1ccccc1I)NC12CC3CC(CC(C3)C1)C2` reads 6.2 nM; that for `COc1ccc(NC(N)=NC23CC4CC(CC(C4)C2)C3)cc1`, 10 nM.
